Test results taken from patent US9896441B2 (Lycera Corporation, priority 2014, dated 2018).
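Wherever TR-FRET Assay Max Response is given: 665/615 nm signal ratio set to 100 without ursolic acid or test compound.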

What follows are molecules tested against T1, RORγ-LBD (Homo sapiens, UniProt P51449) (assay: RORγ-Ligand Binding Domain (LBD) TR-FRET Assay). Settings: RORγ-LBD TR-FRET.
T1 construct: made in house; host or cells: SF9 cells (baculovirus); used as diluted lysate
T1 sequence (P51449 269-508 limits assumed): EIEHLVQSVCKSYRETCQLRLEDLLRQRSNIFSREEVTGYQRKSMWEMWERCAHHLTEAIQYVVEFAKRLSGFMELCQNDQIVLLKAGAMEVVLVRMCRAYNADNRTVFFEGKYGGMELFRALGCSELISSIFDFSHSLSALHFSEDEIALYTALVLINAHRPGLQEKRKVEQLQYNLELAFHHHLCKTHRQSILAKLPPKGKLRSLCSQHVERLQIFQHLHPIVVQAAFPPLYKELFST
Assay type: biochemical
Method: (§1) Assay procedures and results are described below.
HIS-tagged RORγ-LBD protein was expressed in SF9 cells using a baculovirus expression system. The lysate was diluted in assay buffer (50 mM Tris pH 7.0, 50 mM KCl, 1 mM EDTA, 0.1 mM DTT, 0.01% BSA) to obtain RORγ-LBD final concentration of ˜3 nM in a 384-well assay plate (need to titrate for each batch of protein).
A stock of biotinylated-LXXLL peptide from coactivator SRC1 (Biotin-[…]) was prepared in assay buffer and added to each well (200 nM final concentration). […] RORγ antagonist ursolic acid was also included at a final concentration of 2 μM. Compounds were diluted in DMSO and further diluted in assay buffer with a final DMSO concentration at 1%.
For `Cn1cc(/C=C/c2ccc3c(c2)N(S(=O)(=O)c2cccc(C(F)(F)F)c2)C[C@H](CCC(=O)O)O3)c(C(F)(F)F)n1` [Example 89BY, (S,E)-3-(6-(2-(1-methyl-3-(trifluoromethyl)-1H-pyrazol-4-yl)vinyl)-4-((3-(trifluoromethyl)-phenyl)sulfonyl)-3,4-dihydro-2H-benzo[b][1,4]oxazin-2-yl)propanoic acid], the EC50 was > 10000 nM.
With `COc1cc(S(=O)(=O)N2CCCc3ccc(OCc4c(F)cccc4C4CC4)cc32)ccc1F` [Example 25T, 7-((2-cyclopropyl-6-fluorobenzyl)oxy)-1-((4-fluoro-3-methoxyphenyl)sulfonyl)-1,2,3,4-tetrahydroquinoline] the EC50 was < 500 nM.
With `O=S(=O)(c1cccc(C(F)(F)F)c1)N1CCCc2cc(Cl)c(OCc3c(F)cccc3Cl)cc21` [Example 28A] the EC50 was < 500 nM.
With `CCCn1ccc(/C=C/c2ccc3c(c2)N(S(=O)(=O)c2cccc(C(F)(F)F)c2)C[C@H](CCC(=O)O)O3)n1` [Example 89BZ, (S,E)-3-(6-(2-(1-propyl-1H-pyrazol-3-yl)vinyl)-4-((3-(trifluoromethyl)phenyl)sulfonyl)-3,4-dihydro-2H-benzo[b][1,4]oxazin-2-yl)propanoic acid] the EC50 was > 10000 nM.
`Cc1cc2c(cc1OCc1c(F)cccc1Cl)N(S(=O)(=O)c1cccc(C(F)(F)F)c1)CCC2` [Example 28D] was tested, and the EC50 was < 500 nM.
For `COc1cc(S(=O)(=O)N2CCCc3ccc(O[C@@H]4CCc5ccccc54)cc32)ccc1F` [Example 25B, (R)-7-((2,3-dihydro-1H-inden-1-yl)oxy)-1-((4-fluoro-3-methoxyphenyl)sulfonyl)-1,2,3,4-tetrahydroquinoline], the EC50 was < 500 nM.
In the case of `O=C(O)CC[C@H]1CN(S(=O)(=O)c2cc(C(F)(F)F)cnc2OCCO)c2cc(C=C3CCC(O)CC3)ccc2O1` (stereo partly drawn) [Example 95V, 3-((2S)-6-((4-hydroxycyclohexylidene)-methyl)-4-((2-(2-hydroxyethoxy)-5-(trifluoromethyl)pyridin-3-yl)sulfonyl)-3,4-dihydro-2H-benzo[b][1,4]oxazin-2-yl)propanoic acid], the EC50 is reported as 500 to 5000 nM.

Same assay, conditions: RORγ-LBD TR-FRET assay
For `CCOC(=O)C(C)(C)CC1CC(S(=O)(=O)c2cccc(C(F)(F)F)c2)c2cc(OCc3c(F)cccc3Cl)ccc2O1` (centres unmarked) [Example 186D, ethyl 3-(6-((2-chloro-6-fluorobenzyl)oxy)-4-((3-(trifluoromethyl)phenyl)-sulfonyl)chroman-2-yl)-2,2-dimethylpropanoate], the EC50 was < 500 nM.
In the case of `COc1cc(S(=O)(=O)C2CC(CC(C)(C)C(=O)O)Oc3ccc(/C=C(\C)c4c(F)cccc4Cl)cc32)ccc1F` (centres unmarked) [Example 186K, (E)-3-(6-(2-(2-chloro-6-fluorophenyl)prop-1-en-1-yl)-4-((4-fluoro-3-methoxyphenyl)-sulfonyl)chroman-2-yl)-2,2-dimethylpropanoic acid], the EC50 is reported as < 500 nM.
For `CC(=O)N[C@@H]1Cc2ccc(/C=C(\C)c3c(F)cccc3Cl)cc2N(S(=O)(=O)c2cccc(C(F)(F)F)c2)[C@@H]1C` [Example 148, N-((2R,3R)-7-((E)-2-(2-Chloro-6-fluorophenyl)prop-1-en-1-yl)-2-methyl-1-((3-(trifluoromethyl)phenyl)sulfonyl)-1,2,3,4-tetrahydroquinolin-3-yl)acetamide], the EC50 was < 500 nM.

Same assay, conditions: RORγ-LBD TR-FRET assay, maximum response
With `CCOC(=O)C(C)(C)CC1CC(S(=O)(=O)c2cccc(C(F)(F)F)c2)c2cc(OCc3c(F)cccc3Cl)ccc2O1` (centres unmarked) [Example 186D, ethyl 3-(6-((2-chloro-6-fluorobenzyl)oxy)-4-((3-(trifluoromethyl)phenyl)-sulfonyl)chroman-2-yl)-2,2-dimethylpropanoate] the “TR-FRET Assay Max Response” value was “*** (a value in the range of greater than 150 to 200)”.
With `COc1cc(S(=O)(=O)C2CC(CC(C)(C)C(=O)O)Oc3ccc(/C=C(\C)c4c(F)cccc4Cl)cc32)ccc1F` (centres unmarked) [Example 186K, (E)-3-(6-(2-(2-chloro-6-fluorophenyl)prop-1-en-1-yl)-4-((4-fluoro-3-methoxyphenyl)-sulfonyl)chroman-2-yl)-2,2-dimethylpropanoic acid] the “TR-FRET Assay Max Response” value was “*** (a value in the range of greater than 150 to 200)”.
For `CC(=O)N[C@@H]1Cc2ccc(/C=C(\C)c3c(F)cccc3Cl)cc2N(S(=O)(=O)c2cccc(C(F)(F)F)c2)[C@@H]1C` [Example 148, N-((2R,3R)-7-((E)-2-(2-Chloro-6-fluorophenyl)prop-1-en-1-yl)-2-methyl-1-((3-(trifluoromethyl)phenyl)sulfonyl)-1,2,3,4-tetrahydroquinolin-3-yl)acetamide], the “TR-FRET Assay Max Response” value was “** (a value in the range of greater than 90 to 150)”.

Same assay, conditions: with 2 μM ursolic acid (RORγ antagonist); highest test concentration 10 μM
For `O=C(O)C1Cc2ccc(OCc3cc(F)ccc3Cl)cc2N(S(=O)(=O)c2cccc(C(F)(F)F)c2)C1` (centres unmarked), the EC50 was < 500 nM.
For `O=C(O)C1Cc2ccc(OCc3cc(C(F)(F)F)ccc3F)cc2N(S(=O)(=O)c2cccc(C(F)(F)F)c2)C1` (centres unmarked), the EC50 was < 500 nM.
With `CCn1cc(S(=O)(=O)N2CC(C(=O)O)Cc3ccc(/C=C(\C)c4c(F)cccc4Cl)cc32)c(Cl)n1` (centres unmarked) the EC50 was < 500 nM.
With `COc1cc(S(=O)(=O)N2CC(CO)Cc3ccc(OCc4c(F)cccc4Cl)cc32)ccc1F` (centres unmarked) the EC50 was < 500 nM.
With `Cc1nn(C(F)F)cc1S(=O)(=O)N1CC(CO)Cc2ccc(OCc3c(F)cccc3Cl)cc21` (centres unmarked) [drawing 1601] the EC50 was < 500 nM.

Each molecule was assayed against T2, Gal4-RORγ-LBD (Homo sapiens, UniProt P51449) (assay: Gal4-RORγ Luciferase Reporter Assay in HEK-293T Cells). Settings: HEK-293 cells, luciferase reporter, in presence of ursolic acid.
T2 construct: expressed in transfected cells
T2 sequence (P51449 269-508 limits assumed): T1 sequence (P51449 269-508 limits assumed)
Assay type: cell-based
Method: as §1
In the following protocol, HEK-293 cells were transfected with a construct comprising the Gal4 DNA binding domain fused to the ligand binding domain of RORγ (Gal4-RORγ-LBD) in a pcDNA3.1neo plasmid, and also with a reporter construct comprising pGL4.31 Gal4-luciferase (Promega). Control cells were prepared similarly using empty pcDNA3.1neo and pGL4.31 vectors.
Trans-IT reagent (Mirus, 60 μL) at room temperature was added drop wise to OptiMEM (Invitrogen, 1.5 ml). This reagent mixture was mixed by inversion then incubated for 5 to 30 minutes at room temperature. It then was added to a solution of both expression vectors (5 μg each), mixed, and incubated at room temperature for about 20 minutes. HEK-293 cells were harvested from incubation flasks by removing the media, treating with TrypLE Express (Invitrogen), and incubating until the cells detached from the bottom of the flask (approximately 2-5 minutes). 10 Million cells were collected by centrifugation and re-suspended in 10 mL of Dulbecco's Modified Eagle Medium, High Glucose (DMEM, Invitrogen) containing 10% Fetal Bovine Serum and 100 IU each of penicillin and streptomycin. The re-suspended cells and the transfection mixture were added to a T75 flask, mixed and incubated overnight at 37° C. and 5% CO2.
The cells were harvested as described above, counted, and centrifuged to obtain the desired number of cells, then re-suspended in complete growth media at 0.75×10^6 cells/mL. The RORγ antagonist, ursolic acid, was added to the cells at a final concentration of […]. Cells were plated at 20 µL of cell suspension/well (10,000-15,000 cells/well) in white tissue culture treated 384 well plates. Test compounds were dissolved at 10 mM in DMSO then diluted into complete growth medium to 5× the final intended test concentration. These drug stock solutions, 5 µL/well were added to the tissue culture plate. The final DMSO concentration was 0.2%. The plates were briefly centrifuged then incubated overnight at 37° C. and 5% CO2. To conduct the assay, the tissue culture plates were allowed to equilibrate to room temperature and One-Glo luciferase reagent (Promega, 25 µL/well) was added. The plates were briefly centrifuged then incubated at room temperature for 10 minutes. The luciferase intensity was read on an Envision plate reader (Perkin Elmer). […] The luciferase signal in the absence of ursolic acid or test compound is defined at 100. The Max Response is the upper plateau in the signal as determined by line-fit using a 4-parameter logistic model in PRISM (GraphPad).
`CC(=O)NC1CN(C(=O)CC[C@H]2CN(S(=O)(=O)c3cccc(C(F)(F)F)c3)c3cc(/C=C(\C)c4c(F)cccc4Cl)ccc3O2)C1` [Example 127N, (S,E)-N-(1-(3-(6-(2-(2-chloro-6-fluorophenyl)-prop-1-en-1-yl)-4-((3-(trifluoromethyl)phenyl)-sulfonyl)-3,4-dihydro-2H-benzo[b][1,4]oxazin-2-yl)propanoyl)azetidin-3-yl)acetamide] was tested, and the EC50 was < 500 nM.

Same assay, conditions: HEK-293 cells, luciferase reporter, in presence of ursolic acid, maximum response
For `C/C(=C\c1ccc2c(c1)N(S(=O)(=O)c1cccc(C(F)(F)F)c1)C[C@H](CCC(=O)N1CC(O)C1)O2)c1c(F)cccc1Cl` [Example 127L, (S,E)-3-(6-(2-(2-chloro-6-fluorophenyl)prop-1-en-1-yl)-4-((3-(trifluoro-methyl)phenyl)sulfonyl)-3,4-dihydro-2H-benzo[b][1,4]oxazin-2-yl)-1-(3-hydroxyazetidin-1-yl)propan-1-one], the “Gal4-RORγ Assay Max Response” value was “* (a value in the range of 30 to 90)”.
For `CC(=O)NC1CN(C(=O)CC[C@H]2CN(S(=O)(=O)c3cccc(C(F)(F)F)c3)c3cc(/C=C(\C)c4c(F)cccc4Cl)ccc3O2)C1` [Example 127N, (S,E)-N-(1-(3-(6-(2-(2-chloro-6-fluorophenyl)-prop-1-en-1-yl)-4-((3-(trifluoromethyl)phenyl)-sulfonyl)-3,4-dihydro-2H-benzo[b][1,4]oxazin-2-yl)propanoyl)azetidin-3-yl)acetamide], the “Gal4-RORγ Assay Max Response” value was “** (a value in the range of greater than 90 to 150)”.
With `C/C(=C\c1ccc2c(c1)N(S(=O)(=O)c1cccc(C(F)(F)F)c1)C[C@H](CCC(=O)N1C3CCC1COC3)O2)c1c(F)cccc1Cl` [Example 127K, 1-(3-oxa-8-azabicyclo-[3.2.1]octan-8-yl)-3-((S)-6-((E)-2-(2-chloro-6-fluorophenyl)prop-1-en-1-yl)-4-((3-(trifluoro-methyl)phenyl)sulfonyl)-3,4-dihydro-2H-benzo[b][1,4]oxazin-2-yl)propan-1-one] the “Gal4-RORγ Assay Max Response” value was “** (a value in the range of greater than 90 to 150)”.

Same assay, conditions: HEK-293 cells, luciferase reporter, with ursolic acid
Molecule `CCOc1nn2c(c1S(=O)(=O)N1C[C@H](CCC(=O)OC)Oc3ccc(/C=C(\C)c4c(F)cccc4Cl)cc31)CCCC2` [Example 65, Methyl (S,E)-3-(6-(2-(2-chloro-6-fluorophenyl)prop-1-en-1-yl)-4-((2-ethoxy-4,5,6,7-tetrahydropyrazolo[1,5-a]pyridin-3-yl)sulfonyl)-3,4-dihydro-2H-benzo[b][1,4]oxazin-2-yl)propanoate] has an EC50 of 500 to 5000 nM.
`CC/C(=C\c1ccc2c(c1)N(S(=O)(=O)c1cccc(C(F)(F)F)c1)C[C@H](CCC(=O)O)O2)c1ccccc1Cl` [Example 36A, (S,E)-3-(6-(2-(2-chlorophenyl)but-1-en-1-yl)-4-((3-(trifluoromethyl)-phenyl)sulfonyl)-3,4-dihydro-2H-benzo[b][1,4]oxazin-2-yl)propanoic acid] was tested, and the EC50 was < 500 nM.
Work on `O=C(O)CC[C@H]1CN(S(=O)(=O)c2cccc(C(F)(F)F)c2)c2cc(/C=C3\CCCOC3)ccc2O1` [Example 95I, (S,E)-3-(6-((dihydro-2H-pyran-3(4H)-ylidene)methyl)-4-((3-(trifluoromethyl)phenyl)sulfonyl)-3,4-dihydro-2H-benzo[b][1,4]oxazin-2-yl)propanoic acid] yielded an EC50 of 500 to 5000 nM.
With `C/C(=C\c1ccc2c(c1)N(S(=O)(=O)c1cccc(C(F)(F)F)c1)C[C@H](CCC(=O)O)O2)c1c(Cl)cccc1Cl` [Example 86AE, (S,E)-3-(6-(2-(2,6-dichlorophenyl)prop-1-en-1-yl)-4-((3-(trifluoromethyl)phenyl)-sulfonyl)-3,4-dihydro-2H-benzo[b][1,4]oxazin-2-yl)propanoic acid] the EC50 was < 500 nM.
